The structures appear in SMILES notation.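 Briefly, cells in 96-well plates were exposed to five compound concentrations for 48 h, and endpoints were estimated by linear interpolation. Abbreviation: GI50, concentration required for 50% inhibition of growth. The concentration for full growth arrest is given as TGI.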 Some results are limits rather than exact numbers.

One experiment relates to 786-0 renal. The experiment in a line: NCI-60 cell line screen, 48 h.
On to `CCOC(=O)C1=C(NC)OCC1=O`, for which the TGI was more than 100 µM.
Turning to `CCc1ccc(Nc2cc(C)c3ccc(O)cc3n2)cc1`, the GI50 is 6.07 µM and the TGI amounted to 19.9 µM.
The like results for `CNCc1ccc(-c2cc(-c3nc(-c4ccc(S(=O)(=O)C(C)C)cc4)cnc3N)on2)cc1` were, in that order, 0.362 µM and 11.3 µM.
As to `Cc1cc(Cl)nc(N(CCNc2ccnc3cc(Cl)ccc23)Cc2ccco2)n1`, the GI50 was 1.65 µM and the TGI came to 3.1 µM.
For `COc1ccccc1CNCCN1C(=O)c2ccc3c4c(ccc(c24)C1=O)C(=O)N(CCNCc1ccccc1OC)C3=O`, the GI50 was 0.187 µM and the TGI is 0.37 µM.
On to `CCCCCCCCCCCC[C@@H](O)[C@H]1CC[C@H]([C@H](O)CC[C@H](O)[C@@H]2CC[C@@H](CCCCCCCC3=C[C@H](C)OC3=O)O2)O1`, for which the GI50 was 6.4 µM and the TGI is more than 50 µM.
For `CSc1nc2nc(-c3ccccc3)c(C)c-2c2n1C(C)C(=O)N2` (stereo unspecified), in that order: 29.2 µM and more than 100 µM.
As to `CCOC(=O)/C(=C/c1ccccn1)C(=O)c1ccccc1`, the TGI stood at 25.9 µM.
Regarding `O=C(c1ccccc1)[C@H]1Nc2ccc(Cl)cc2[C@H]2CCC[C@@H]12`, the TGI is more than 100 µM.
On to `C=CCN(CC=C)C(=O)c1cc(C)nc2c1c(=O)n(-c1ccccc1)c(=O)n2CCCN1CCN(c2ccccc2OC)CC1`, for which the GI50 is more than 50 µM and the TGI was more than 50 µM.
On to `CCN(CC)c1ccc2nc3ccc(=[N+](CC)CC)cc-3oc2c1`, for which the GI50 is 1.18 µM and the TGI was determined as 2.6 µM.
The molecule `Cc1ccc(S(=O)(=O)NCCCCC(N)C(=O)O)cc1` (stereo unspecified) came in with a TGI of more than 100 µM.
Consider `O=C(Nc1ccc(OC(F)(F)Cl)cc1)c1cnc(N2CC[C@@H](O)C2)c(-c2ccn[nH]2)c1`, for which the GI50 is 15 µM and the TGI was determined as 32.8 µM.

In the next experiment the test system is ACHN renal. The experiment in a line: NCI-60 cell line screen, 48 h.
`CCOC(=O)C1=C(NC)OCC1=O` registered a TGI of more than 100 µM.
For the molecule `CCc1ccc(Nc2cc(C)c3ccc(O)cc3n2)cc1`, the GI50 is 5.82 µM and the TGI was 19.5 µM.
For the molecule `CNCc1ccc(-c2cc(-c3nc(-c4ccc(S(=O)(=O)C(C)C)cc4)cnc3N)on2)cc1`, the GI50 was 0.115 µM and the TGI was 10.9 µM.
For `Cc1cc(Cl)nc(N(CCNc2ccnc3cc(Cl)ccc23)Cc2ccco2)n1`, the GI50 is 1.71 µM and the TGI amounted to 3.4 µM.
For `COc1ccccc1CNCCN1C(=O)c2ccc3c4c(ccc(c24)C1=O)C(=O)N(CCNCc1ccccc1OC)C3=O`, in that order: 0.39 µM and 1.24 µM.
For `CCCCCCCCCCCC[C@@H](O)[C@H]1CC[C@H]([C@H](O)CC[C@H](O)[C@@H]2CC[C@@H](CCCCCCCC3=C[C@H](C)OC3=O)O2)O1`, in that order: 2.51 µM and more than 50 µM.
As for `CSc1nc2nc(-c3ccccc3)c(C)c-2c2n1C(C)C(=O)N2` (stereo unspecified), the GI50 was 38.1 µM and the TGI is more than 100 µM.
As for `CCOC(=O)/C(=C/c1ccccn1)C(=O)c1ccccc1`, the TGI is more than 56.2 µM.
The molecule `O=C(c1ccccc1)[C@H]1Nc2ccc(Cl)cc2[C@H]2CCC[C@@H]12` registered a TGI of 57.9 µM.
For the molecule `C=CCN(CC=C)C(=O)c1cc(C)nc2c1c(=O)n(-c1ccccc1)c(=O)n2CCCN1CCN(c2ccccc2OC)CC1`, the GI50 is more than 50 µM and the TGI is more than 50 µM.
Turning to `CCN(CC)c1ccc2nc3ccc(=[N+](CC)CC)cc-3oc2c1`, the GI50 is 1.56 µM and the TGI worked out at 59.8 µM.
As for `Cc1ccc(S(=O)(=O)NCCCCC(N)C(=O)O)cc1` (stereo unspecified), the TGI is more than 100 µM.
Regarding `O=C(Nc1ccc(OC(F)(F)Cl)cc1)c1cnc(N2CC[C@@H](O)C2)c(-c2ccn[nH]2)c1`, the GI50 is 5.03 µM and the TGI came out at 28.3 µM.

The next experiment concerns HCT-116 colon. The experiment in a line: NCI-60 cell line screen, 48 h.
As to `CCOC(=O)C1=C(NC)OCC1=O`, the TGI was more than 100 µM.
For the molecule `CCc1ccc(Nc2cc(C)c3ccc(O)cc3n2)cc1`, the GI50 is 4.57 µM and the TGI was 17.4 µM.
For `CNCc1ccc(-c2cc(-c3nc(-c4ccc(S(=O)(=O)C(C)C)cc4)cnc3N)on2)cc1`, the GI50 is 1.08 µM and the TGI was 2.3 µM.
Consider `Cc1cc(Cl)nc(N(CCNc2ccnc3cc(Cl)ccc23)Cc2ccco2)n1`, for which the GI50 was 1.58 µM and the TGI turned out to be 3.2 µM.
For `COc1ccccc1CNCCN1C(=O)c2ccc3c4c(ccc(c24)C1=O)C(=O)N(CCNCc1ccccc1OC)C3=O`, the GI50 is 0.189 µM and the TGI worked out at 0.406 µM.
Take `CCCCCCCCCCCC[C@@H](O)[C@H]1CC[C@H]([C@H](O)CC[C@H](O)[C@@H]2CC[C@@H](CCCCCCCC3=C[C@H](C)OC3=O)O2)O1`: the GI50 is 1.7 µM and the TGI was more than 50 µM.
With `CSc1nc2nc(-c3ccccc3)c(C)c-2c2n1C(C)C(=O)N2` (stereo unspecified), the GI50 is 37.4 µM and the TGI is more than 100 µM.
For the molecule `CCOC(=O)/C(=C/c1ccccn1)C(=O)c1ccccc1`, the TGI came to 27.3 µM.
Regarding `O=C(c1ccccc1)[C@H]1Nc2ccc(Cl)cc2[C@H]2CCC[C@@H]12`, the TGI was 41.5 µM.
For `C=CCN(CC=C)C(=O)c1cc(C)nc2c1c(=O)n(-c1ccccc1)c(=O)n2CCCN1CCN(c2ccccc2OC)CC1`, the GI50 is more than 50 µM and the TGI is more than 50 µM.
For the molecule `CCN(CC)c1ccc2nc3ccc(=[N+](CC)CC)cc-3oc2c1`, the GI50 is 0.0402 µM and the TGI amounted to 1.27 µM.
On to `Cc1ccc(S(=O)(=O)NCCCCC(N)C(=O)O)cc1` (stereo unspecified), for which the TGI was more than 100 µM.
On to `O=C(Nc1ccc(OC(F)(F)Cl)cc1)c1cnc(N2CC[C@@H](O)C2)c(-c2ccn[nH]2)c1`, for which the GI50 is 10.8 µM and the TGI turned out to be 23.9 µM.

The next experiment has as its system K-562 leukemia. The experiment in a line: NCI-60 cell line screen, 48 h.
On to `CCOC(=O)C1=C(NC)OCC1=O`, for which the TGI is more than 100 µM.
For the molecule `CCc1ccc(Nc2cc(C)c3ccc(O)cc3n2)cc1`, the GI50 was 3.2 µM and the TGI was 15.4 µM.
Regarding `CNCc1ccc(-c2cc(-c3nc(-c4ccc(S(=O)(=O)C(C)C)cc4)cnc3N)on2)cc1`, the GI50 was 1.05 µM and the TGI stood at 3.61 µM.
For `Cc1cc(Cl)nc(N(CCNc2ccnc3cc(Cl)ccc23)Cc2ccco2)n1`, in that order: 1.54 µM and 3.35 µM.
For `COc1ccccc1CNCCN1C(=O)c2ccc3c4c(ccc(c24)C1=O)C(=O)N(CCNCc1ccccc1OC)C3=O`, in that order: 0.234 µM and 1.09 µM.
As to `CCCCCCCCCCCC[C@@H](O)[C@H]1CC[C@H]([C@H](O)CC[C@H](O)[C@@H]2CC[C@@H](CCCCCCCC3=C[C@H](C)OC3=O)O2)O1`, the GI50 was 3 µM and the TGI is more than 50 µM.
As for `CSc1nc2nc(-c3ccccc3)c(C)c-2c2n1C(C)C(=O)N2` (stereo unspecified), the GI50 was 41.5 µM and the TGI was more than 100 µM.
In turn, `CCOC(=O)/C(=C/c1ccccn1)C(=O)c1ccccc1` yielded a TGI of 85 µM.
In turn, `O=C(c1ccccc1)[C@H]1Nc2ccc(Cl)cc2[C@H]2CCC[C@@H]12` yielded a TGI of 64.5 µM.
In the case of `C=CCN(CC=C)C(=O)c1cc(C)nc2c1c(=O)n(-c1ccccc1)c(=O)n2CCCN1CCN(c2ccccc2OC)CC1`, the GI50 is more than 50 µM and the TGI was more than 50 µM.
For `CCN(CC)c1ccc2nc3ccc(=[N+](CC)CC)cc-3oc2c1`, the GI50 is 0.174 µM and the TGI is more than 100 µM.
In turn, `Cc1ccc(S(=O)(=O)NCCCCC(N)C(=O)O)cc1` (stereo unspecified) had a TGI of more than 100 µM.
`O=C(Nc1ccc(OC(F)(F)Cl)cc1)c1cnc(N2CC[C@@H](O)C2)c(-c2ccn[nH]2)c1`: the TGI was 11 µM.

The test system of another experiment is OVCAR-3 ovarian. The experiment in a line: NCI-60 cell line screen, 48 h.
The molecule `CCOC(=O)C1=C(NC)OCC1=O` registered a TGI of more than 100 µM.
As to `CCc1ccc(Nc2cc(C)c3ccc(O)cc3n2)cc1`, the GI50 is 11.7 µM and the TGI was found to be 27.8 µM.
`CNCc1ccc(-c2cc(-c3nc(-c4ccc(S(=O)(=O)C(C)C)cc4)cnc3N)on2)cc1`: the GI50 was 2.93 µM and the TGI worked out at 10.6 µM.
The like results for `Cc1cc(Cl)nc(N(CCNc2ccnc3cc(Cl)ccc23)Cc2ccco2)n1` were, in that order, 1.75 µM and 3.32 µM.
The like results for `COc1ccccc1CNCCN1C(=O)c2ccc3c4c(ccc(c24)C1=O)C(=O)N(CCNCc1ccccc1OC)C3=O` were, in that order, 0.207 µM and 0.676 µM.
On to `CCCCCCCCCCCC[C@@H](O)[C@H]1CC[C@H]([C@H](O)CC[C@H](O)[C@@H]2CC[C@@H](CCCCCCCC3=C[C@H](C)OC3=O)O2)O1`, for which the GI50 was 2.78 µM and the TGI was more than 50 µM.
For `CSc1nc2nc(-c3ccccc3)c(C)c-2c2n1C(C)C(=O)N2` (stereo unspecified), the GI50 is 26.8 µM and the TGI came out at 81.8 µM.
For `CCOC(=O)/C(=C/c1ccccn1)C(=O)c1ccccc1`, the TGI was 27.4 µM.
In the case of `O=C(c1ccccc1)[C@H]1Nc2ccc(Cl)cc2[C@H]2CCC[C@@H]12`, the TGI was found to be 68.6 µM.
As to `C=CCN(CC=C)C(=O)c1cc(C)nc2c1c(=O)n(-c1ccccc1)c(=O)n2CCCN1CCN(c2ccccc2OC)CC1`, the GI50 is more than 50 µM and the TGI is more than 50 µM.
`CCN(CC)c1ccc2nc3ccc(=[N+](CC)CC)cc-3oc2c1`: the GI50 is 0.0318 µM and the TGI was 0.362 µM.
